Values of other authors as cited in US20130261032A1, “ADDITIVE FOR SUBTERRANEAN TREATMENT” (SCHLUMBERGER TECHNOLOGY CORPORATION, priority 2012, published 2013).
Where two headings read alike, the source gives them in different places.

SMILES | acute oral toxicity, LD50 (oral) | acute oral toxicity, LD50 (in vivo, po) [mg/kg]
C[N+](C)(C)CC(=O)[O-] [TMG, trimethyl glycine] | greater than 10,000 mg/kg | –
CCO [ethanol] | – | 7060
CC(O)CO (stereo not drawn) [propylene glycol] | 20,000 mg/kg | –
